Assays:
[1] = system: hyperalgesia induced by the Walker 256 tumor; test: hyperalgesia induced by the Walker 256 tumor (cancer pain); format: in vivo, rat; details: saline + antagonist alone i.pl. (ICI 10, nor-BNI 50, CTOP 20 μg/paw); for pain threshold, FM / pain threshold, IM: 5th day; for pain threshold, FM: 2 hours after treatment; for pain threshold, IM: before treatment; for pain threshold, BM: before injection of the tumor
Source text: The Walker 256 tumor cells were kindly provided by Prof. Dr. Rui Curi, of the Physiology and Biophysics Department of the Biomedical Science Institute of the University of São Paulo. The tumor-bearing animal was sacrificed and the tumoral tissue was removed, placed on a Petri dish containing 0.9% saline. Then, the tumor was cut in smaller parts, and transferred into a beaker containing saline. The material was triturated with a fine-cut, until the tumor is totally fragmented. Then, this material was filtered in gauze and the liquid collected in a beaker. All procedures were performed on ice. The material of the beaker was transferred to 50 ml plastic tubes and centrifuged at 4° C., for 10 minutes, at 1200 rpm. After centrifugation, the supernatant was rejected and the precipitate resuspended in saline 0.9%. For cell counts, the suspension of cells was diluted (1:100) in saline. An aliquot (200 μl) was removed and placed in a test tube containing 200 μl of 1% Trypan blue. The cell number was determined in optical microscope using Neubauer's chamber. The cellular viability was determined considering viable the light-refracting cells.
After determining the number of cells, 1 ml of the suspension, containing 1×10^7 cells, was injected by intraperitoneal route, on the right side of the rats to obtain liquid tumor (ascites).
Five days after injection, the rats with ascites were sacrificed and the ascetic fluid collected from the peritoneal cavity and placed in a test tube containing EDTA. The liquid was diluted 100 times with phosphate-buffered saline (PBS), pH 7.4. The cell count was done after dilution with Trypan blue, as described above. Tumor cell count was ascertained to 1×10^6 cells in 100 μl, by dilution with PBS. This number of cells was determined in preliminary tests for induction of cancer pain in rats. In this final cell number adjustment, the volume of antibiotic (Benzetacil®) added to the suspension (150,000 units of antibiotic/10 ml of suspension), was taken into consideration. The antibiotic was used in order to avoid microbial contamination. The cells were injected by intraplantar route into one of the rat hind paws. Control animals were injected with PBS into the contralateral paw, in the same experimental conditions.
Hyperalgesia, allodynia and spontaneous pain were determined before (BM-basal measurement) and 5 days after tumor cell injection, before (IM-initial measurement) and 2 hours after (FM-Final measurement) peptide administration.
The results were analyzed comparing the mean values of the basal and initial measurements, or of the initial and final measurements or, when determined, by comparing the mean values obtained in the different experimental groups (Tables 17, 18, 19).
For this purpose, the animals were treated with CTOP, a specific μ receptor antagonist (20 μg/paw), nor-BNI, a specific κ receptor antagonist (50 μg/paw) or with ICI 174,864, a specific δ receptor antagonist (10 μg/paw). The antagonists were injected by intraplantar route. The peptide was administered in the dose of 6 μg/kg, orally, immediately before the injection of the opioid antagonists. The results were analyzed comparing the mean values of the basal and initial measurements, or of the initial and final measurements or, when determined, by comparing the mean values obtained in the different experimental groups ( Table 20).

[2] = system: prostaglandin E2-induced hyperalgesia; test: rat paw pressure test, prostaglandin E2-induced hyperalgesia; details: for pain threshold, IM (g) ± S.E.M.: saline p.o. + antagonist alone i.pl. (ICI174,864 10 μg/paw; nor-BNI 50 μg/leg; CTOP 20 μg/leg), before PGE2; for pain threshold, FM (g) ± S.E.M: saline p.o. + antagonist alone i.pl. with PGE2 (ICI174,864 10 μg/paw; nor-BNI 50 μg/leg; CTOP 20 μg/leg), 3 h after PGE2

Compound	pain threshold, FM [1] [g]	pain threshold, IM [1] [g]	pain threshold, BM [1] [g]	pain threshold, IM (g) ± S.E.M. [2] [g]	pain threshold, FM (g) ± S.E.M [2] [g]
Oc1ccc2c3c1O[C@H]1c4[nH]c5c(c4C[C@@]4(O)[C@@H](C2)N(CC2CC2)CC[C@]314)C[C@@]1(O)[C@H]2Cc3ccc(O)c4c3[C@@]1(CCN2CC1CC1)[C@H]5O4 [nor-BNI, nor-Binalthorphimine, reference compound]	32 ± 1.66	33 ± 3.33	70 ± 2.88	72 ± 1.44	56 ± 1.25
CTOP [reference compound]	32 ± 1.66	35 ± 2.88	68 ± 1.66	74 ± 2.39	56 ± 2.39

Source: patent US9109041B2, “Analog compounds of analgesic peptides derived from the venom of crotalus durissus terrificus snakes, their uses, compositions, methods of preparation and purification” (priority 2004, dated 2015)
